# Patent publication US8192962B2, “Processes for detecting toxic substances” (Daikin Industries, Ltd., priority 2001, dated 2012)
# Test system: Unknown protein yeast genes
# Assay: DNA chip mRNA expression in yeast, unknown protein yeast genes (Table 1)
# Format: cell-based, Saccharomyces cerevisiae S288C
# In short: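 Chemical exposure: 2 h, log-phase S. cerevisiae S288C, YPD, 25° C., dose set to inhibit growth without death. Profiling: mRNA labeled by reverse transcription with Cy3- or Cy5-dUTP, hybridized to whole-genome array. Output: fluorescence ratio against untreated culture.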
smiles,measurement,setting,value
"C=CC=O [(14), acrolein]",The level of expressed mRNA in the presence of chemical substance/The level of expressed mRNA in the absence of chemical substance,"yeast gene YKL195W, incubated two hours with chemical substance",1.6
same,The level of expressed mRNA in the presence of chemical substance/The level of expressed mRNA in the absence of chemical substance,"yeast gene YKR091W, incubated two hours with chemical substance",1.9
same,The level of expressed mRNA in the presence of chemical substance/The level of expressed mRNA in the absence of chemical substance,"yeast gene YLR054C, incubated two hours with chemical substance",1.1
same,The level of expressed mRNA in the presence of chemical substance/The level of expressed mRNA in the absence of chemical substance,"yeast gene YLR149C, incubated two hours with chemical substance",1.2
same,The level of expressed mRNA in the presence of chemical substance/The level of expressed mRNA in the absence of chemical substance,"yeast gene YLR152C, incubated two hours with chemical substance",1.2
same,The level of expressed mRNA in the presence of chemical substance/The level of expressed mRNA in the absence of chemical substance,"yeast gene YLR194C, incubated two hours with chemical substance",1.2
same,The level of expressed mRNA in the presence of chemical substance/The level of expressed mRNA in the absence of chemical substance,yeast gene YLR297W,2.3
same,The level of expressed mRNA in the presence of chemical substance/The level of expressed mRNA in the absence of chemical substance,"yeast gene YLR324W, incubated two hours with chemical substance",1.4
same,The level of expressed mRNA in the presence of chemical substance/The level of expressed mRNA in the absence of chemical substance,"yeast gene YLR350W, incubated two hours with chemical substance",2.8
same,The level of expressed mRNA in the presence of chemical substance/The level of expressed mRNA in the absence of chemical substance,"yeast gene YLR387C, incubated two hours with chemical substance",1.7
same,The level of expressed mRNA in the presence of chemical substance/The level of expressed mRNA in the absence of chemical substance,yeast gene YLR460C,3.5
same,The level of expressed mRNA in the presence of chemical substance/The level of expressed mRNA in the absence of chemical substance,"yeast gene YML117W, incubated two hours with chemical substance",0.8
same,The level of expressed mRNA in the presence of chemical substance/The level of expressed mRNA in the absence of chemical substance,"yeast gene YMR009W, incubated two hours with chemical substance",1.9
same,The level of expressed mRNA in the presence of chemical substance/The level of expressed mRNA in the absence of chemical substance,"yeast gene YMR067C, incubated two hours with chemical substance",1.5
same,The level of expressed mRNA in the presence of chemical substance/The level of expressed mRNA in the absence of chemical substance,yeast gene YMR090W,6.5
same,The level of expressed mRNA in the presence of chemical substance/The level of expressed mRNA in the absence of chemical substance,"yeast gene YMR095C, incubated two hours with chemical substance",2.2
same,The level of expressed mRNA in the presence of chemical substance/The level of expressed mRNA in the absence of chemical substance,"yeast gene YMR097C, incubated two hours with chemical substance",2.1
same,The level of expressed mRNA in the presence of chemical substance/The level of expressed mRNA in the absence of chemical substance,"yeast gene YMR102C, incubated two hours with chemical substance",0.7
same,The level of expressed mRNA in the presence of chemical substance/The level of expressed mRNA in the absence of chemical substance,"yeast gene YMR107W, incubated two hours with chemical substance",8.1
same,The level of expressed mRNA in the presence of chemical substance/The level of expressed mRNA in the absence of chemical substance,"yeast gene YMR180C, incubated two hours with chemical substance",1.7
same,The level of expressed mRNA in the presence of chemical substance/The level of expressed mRNA in the absence of chemical substance,"yeast gene YMR184W, incubated two hours with chemical substance",1.5
same,The level of expressed mRNA in the presence of chemical substance/The level of expressed mRNA in the absence of chemical substance,"yeast gene YMR191W, incubated two hours with chemical substance",1.5
same,The level of expressed mRNA in the presence of chemical substance/The level of expressed mRNA in the absence of chemical substance,"yeast gene YMR295C, incubated two hours with chemical substance",1.3
same,The level of expressed mRNA in the presence of chemical substance/The level of expressed mRNA in the absence of chemical substance,"yeast gene YMR316W, incubated two hours with chemical substance",1.3
same,The level of expressed mRNA in the presence of chemical substance/The level of expressed mRNA in the absence of chemical substance,"yeast gene YNL044W, incubated two hours with chemical substance",1.2
same,The level of expressed mRNA in the presence of chemical substance/The level of expressed mRNA in the absence of chemical substance,"yeast gene YNL074C, incubated two hours with chemical substance",0.6
same,The level of expressed mRNA in the presence of chemical substance/The level of expressed mRNA in the absence of chemical substance,"yeast gene YNL092W, incubated two hours with chemical substance",1.2
same,The level of expressed mRNA in the presence of chemical substance/The level of expressed mRNA in the absence of chemical substance,"yeast gene YNL115C, incubated two hours with chemical substance",1.0
same,The level of expressed mRNA in the presence of chemical substance/The level of expressed mRNA in the absence of chemical substance,"yeast gene YNL156C, incubated two hours with chemical substance",1.4
same,The level of expressed mRNA in the presence of chemical substance/The level of expressed mRNA in the absence of chemical substance,"yeast gene YNL234W, incubated two hours with chemical substance",1.5
same,The level of expressed mRNA in the presence of chemical substance/The level of expressed mRNA in the absence of chemical substance,"yeast gene YNL281W, incubated two hours with chemical substance",1.2
same,The level of expressed mRNA in the presence of chemical substance/The level of expressed mRNA in the absence of chemical substance,"yeast gene YNL305C, incubated two hours with chemical substance",1.3
same,The level of expressed mRNA in the presence of chemical substance/The level of expressed mRNA in the absence of chemical substance,"yeast gene YNR068C, incubated two hours with chemical substance",1.8
same,The level of expressed mRNA in the presence of chemical substance/The level of expressed mRNA in the absence of chemical substance,"yeast gene YOL032W, incubated two hours with chemical substance",1.3
same,The level of expressed mRNA in the presence of chemical substance/The level of expressed mRNA in the absence of chemical substance,"yeast gene YOL036W, incubated two hours with chemical substance",1.0
same,The level of expressed mRNA in the presence of chemical substance/The level of expressed mRNA in the absence of chemical substance,"yeast gene YOL047C, incubated two hours with chemical substance",1.2
same,The level of expressed mRNA in the presence of chemical substance/The level of expressed mRNA in the absence of chemical substance,"yeast gene YOL071W, incubated two hours with chemical substance",2.5
same,The level of expressed mRNA in the presence of chemical substance/The level of expressed mRNA in the absence of chemical substance,"yeast gene YOL082W, incubated two hours with chemical substance",1.4
same,The level of expressed mRNA in the presence of chemical substance/The level of expressed mRNA in the absence of chemical substance,"yeast gene YOL083W, incubated two hours with chemical substance",1.4
same,The level of expressed mRNA in the presence of chemical substance/The level of expressed mRNA in the absence of chemical substance,"yeast gene YOL117W, incubated two hours with chemical substance",1.7
same,The level of expressed mRNA in the presence of chemical substance/The level of expressed mRNA in the absence of chemical substance,"yeast gene YOL131W, incubated two hours with chemical substance",2.3
same,The level of expressed mRNA in the presence of chemical substance/The level of expressed mRNA in the absence of chemical substance,yeast gene YOL150C,5.7
same,The level of expressed mRNA in the presence of chemical substance/The level of expressed mRNA in the absence of chemical substance,"yeast gene YOL162W, incubated two hours with chemical substance",1.4
same,The level of expressed mRNA in the presence of chemical substance/The level of expressed mRNA in the absence of chemical substance,"yeast gene YOR019W, incubated two hours with chemical substance",1.4
same,The level of expressed mRNA in the presence of chemical substance/The level of expressed mRNA in the absence of chemical substance,"yeast gene YOR197W, incubated two hours with chemical substance",0.7
same,The level of expressed mRNA in the presence of chemical substance/The level of expressed mRNA in the absence of chemical substance,"yeast gene YPL087W, incubated two hours with chemical substance",1.2
same,The level of expressed mRNA in the presence of chemical substance/The level of expressed mRNA in the absence of chemical substance,"yeast gene YPL196W, incubated two hours with chemical substance",1.6
same,The level of expressed mRNA in the presence of chemical substance/The level of expressed mRNA in the absence of chemical substance,"yeast gene YPL206C, incubated two hours with chemical substance",1.1
same,The level of expressed mRNA in the presence of chemical substance/The level of expressed mRNA in the absence of chemical substance,"yeast gene YPL222W, incubated two hours with chemical substance",1.1
same,The level of expressed mRNA in the presence of chemical substance/The level of expressed mRNA in the absence of chemical substance,"yeast gene YPR023C, incubated two hours with chemical substance",0.9
same,The level of expressed mRNA in the presence of chemical substance/The level of expressed mRNA in the absence of chemical substance,"yeast gene YPR151C, incubated two hours with chemical substance",1.4
